Test results published in patent publication US8846704B2, “Thiopyrimidine-based compounds and uses thereof” (YM Biosciences Austraila Pty Ltd, priority 2007, dated 2014).

How the values were obtained:
[1] = target: T1, BaF3 TELJAK3 cells (Homo sapiens, UniProt P52333); test: Cellular screening, BaF3 TEL:JAK3 cells, Alamar Blue; format: cell-based; details: 40 hr, read-out: BafT_J3 IC50_nM
T1 construct: fused on or other part: TEL (ETV6) N-terminal part, coding nucleotides 1-487, serves as the oligomerising partner; It is fused through a Sal I site to the JAK3 kinase domain and expressed from pTRE2 in BaF3 cells bearing pTET-off; P41212 (Transcription factor ETV6)
T1 sequence (P52333 1-1124): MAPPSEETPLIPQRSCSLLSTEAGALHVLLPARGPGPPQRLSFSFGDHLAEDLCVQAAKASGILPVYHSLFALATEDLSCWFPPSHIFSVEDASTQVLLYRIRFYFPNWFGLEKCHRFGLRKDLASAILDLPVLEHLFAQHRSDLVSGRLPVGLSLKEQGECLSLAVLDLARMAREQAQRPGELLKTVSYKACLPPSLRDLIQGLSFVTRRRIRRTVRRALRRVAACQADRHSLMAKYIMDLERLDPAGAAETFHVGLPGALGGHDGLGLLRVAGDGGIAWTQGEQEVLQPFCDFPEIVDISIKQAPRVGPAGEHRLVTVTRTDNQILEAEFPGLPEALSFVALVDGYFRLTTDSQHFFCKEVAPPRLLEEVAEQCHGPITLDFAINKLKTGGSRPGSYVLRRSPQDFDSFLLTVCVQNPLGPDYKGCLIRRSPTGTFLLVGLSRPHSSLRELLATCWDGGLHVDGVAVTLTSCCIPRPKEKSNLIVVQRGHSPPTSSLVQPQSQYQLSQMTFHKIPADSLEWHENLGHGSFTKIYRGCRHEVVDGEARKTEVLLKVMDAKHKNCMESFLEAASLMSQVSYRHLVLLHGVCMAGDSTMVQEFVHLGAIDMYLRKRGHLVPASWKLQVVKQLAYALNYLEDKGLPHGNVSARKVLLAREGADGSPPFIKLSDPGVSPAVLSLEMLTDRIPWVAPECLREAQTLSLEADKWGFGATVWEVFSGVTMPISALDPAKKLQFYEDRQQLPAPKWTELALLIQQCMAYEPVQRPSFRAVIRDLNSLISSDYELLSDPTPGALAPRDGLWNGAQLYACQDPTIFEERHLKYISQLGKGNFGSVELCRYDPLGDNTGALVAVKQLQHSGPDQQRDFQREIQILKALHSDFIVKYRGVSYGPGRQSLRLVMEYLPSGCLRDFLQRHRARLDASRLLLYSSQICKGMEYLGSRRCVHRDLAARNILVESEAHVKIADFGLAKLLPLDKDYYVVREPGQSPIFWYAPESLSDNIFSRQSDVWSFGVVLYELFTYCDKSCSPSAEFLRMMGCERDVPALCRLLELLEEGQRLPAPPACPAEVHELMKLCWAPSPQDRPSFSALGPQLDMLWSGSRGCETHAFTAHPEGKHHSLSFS
Procedure: (§1) For screening purposes, compounds were diluted in 96 well plates at a concentration of 20 μM. Plates were warmed at 37° C. for 30 minutes before the assay was performed.
(§2) The coding region encompassing nucleotides 1-487 of TEL was amplified by PCR using the oligonucleotides STEL (5′-GGAGGATCCTGATCTCTCTCGCTGTGAGAC-3′) [SEQ ID NO 14] and 3TEL (5′-AGGC GTCGACTTCTTCTTCATGGTTCTG-3′) [SEQ ID NO 15] and U937 mRNA as a template. A […] restriction site was incorporated into the STEL primer, and a Sal I restriction site was incorporated into the 3TEL primer. The regions encompassing the kinase domain of JAK2 (nucleotides 2994-3914; JAK2F 5′-ACGC GTCGACGGTGCCTTTGAAGACCGGGAT-3′ [SEQ ID NO 16]; JAK2R 5′-ATAGTTTAGCGGCCGCTCAGAATGAAGGTCATTT-3′) [SEQ ID NO 17] and JAK3 (nucleotides 2520-3469; JAK3F 5′-GAAGTCGACTATGCCTGCCAAGACCCCACGATCTT-3′) [SEQ ID NO 18] were generated by PCR using Taq DNA polymerase (Gibco/BRL) and […] as a template. A Sal I restriction site was incorporated into the forward primer of JAK2 and JAK3, a Not I site was incorporated into the JAK2 reverse primer and a Xba I site was added to the reverse primer of JAK3.
The TEL/Jak3 fusion was prepared by ligation of the JAK3 Sal I/Not I cleaved kinase domain PCR product with the BamH I/Sal I restriction digested TEL product, followed by ligation of the ligation product into the BamH I/Not I digested pTRE2, to give the TEL/Jak3 fusion plasmid pTELJAK3.
(§3) The growth factor dependant myelomonocytic cell line BaF3 bearing the pTET-off plasmid (Clontech) was transfected with either pTELJAK2 or pTELJAK3, and the transfected cells were selected for growth-factor independent cell growth. The BaF3 wild-type cells were cultured in DMEM containing 10% FCS, 10% WEHI 3B conditioned medium. The BaF3 TELJAK cells ([…]) were cultured in DMEM 10% Tet-System Approved FBS (without WEHI 3B conditioned medium).
(§4) Cell suspensions were prepared by harvesting cells from culture (the cells used in this test were in late log phase growth with high viability.) Cells were diluted in the appropriate growth medium, as described above, to 1.1× final concentration (from 50,000 cell/mL to 200,000 cell/mL, depending on cell line).
(§5) Compounds to be tested were added (10 μL, 10× final concentration) to a flat bottomed 96-well plate. The cellular suspension (90 μL per well) was then added, and the plate incubated for 40 hr at 37° C., 5% CO2. Alamar Blue 10 μL per well was added and the plates returned to the incubator for a further 4-6 hours. The plates were then read at 544 nm.

[2] = target: T2, BaF3 TELJAK2 cells (BafT_J2) (Homo sapiens, UniProt O60674); test: Cellular screening, BaF3 TEL:JAK2 cells, Alamar Blue; format: cell-based; details: 40 hr, read-out: BafT_J2 IC50_nM
T2 construct: fused on or other part: TEL (ETV6) N-terminal part, coding nucleotides 1-487, serves as the oligomerising partner; It is fused through a Sal I site to the JAK2 kinase domain and expressed from pTRE2 in BaF3 cells bearing pTET-off; P41212 (Transcription factor ETV6)
Procedure: as §1, §2
A TEL/Jak2 fusion was generated by digestion of the TELPCR product with BamH I/Sal I restriction enzymes, digestion of the JAK2 PCR product with Sal I/Not I restriction enzymes, followed by ligation and subcloning of the ligation product into the mammalian expression Vector pTRE 2 (Clontech), which was prepared by digestion with BamH I-Not I restriction enzymes, to give the TEL/Jak2 fusion plasmid pTELJAK2.
as §3, §4, §5

T2 sequence (O60674 whole entry, change not shown, the tested form may be a part): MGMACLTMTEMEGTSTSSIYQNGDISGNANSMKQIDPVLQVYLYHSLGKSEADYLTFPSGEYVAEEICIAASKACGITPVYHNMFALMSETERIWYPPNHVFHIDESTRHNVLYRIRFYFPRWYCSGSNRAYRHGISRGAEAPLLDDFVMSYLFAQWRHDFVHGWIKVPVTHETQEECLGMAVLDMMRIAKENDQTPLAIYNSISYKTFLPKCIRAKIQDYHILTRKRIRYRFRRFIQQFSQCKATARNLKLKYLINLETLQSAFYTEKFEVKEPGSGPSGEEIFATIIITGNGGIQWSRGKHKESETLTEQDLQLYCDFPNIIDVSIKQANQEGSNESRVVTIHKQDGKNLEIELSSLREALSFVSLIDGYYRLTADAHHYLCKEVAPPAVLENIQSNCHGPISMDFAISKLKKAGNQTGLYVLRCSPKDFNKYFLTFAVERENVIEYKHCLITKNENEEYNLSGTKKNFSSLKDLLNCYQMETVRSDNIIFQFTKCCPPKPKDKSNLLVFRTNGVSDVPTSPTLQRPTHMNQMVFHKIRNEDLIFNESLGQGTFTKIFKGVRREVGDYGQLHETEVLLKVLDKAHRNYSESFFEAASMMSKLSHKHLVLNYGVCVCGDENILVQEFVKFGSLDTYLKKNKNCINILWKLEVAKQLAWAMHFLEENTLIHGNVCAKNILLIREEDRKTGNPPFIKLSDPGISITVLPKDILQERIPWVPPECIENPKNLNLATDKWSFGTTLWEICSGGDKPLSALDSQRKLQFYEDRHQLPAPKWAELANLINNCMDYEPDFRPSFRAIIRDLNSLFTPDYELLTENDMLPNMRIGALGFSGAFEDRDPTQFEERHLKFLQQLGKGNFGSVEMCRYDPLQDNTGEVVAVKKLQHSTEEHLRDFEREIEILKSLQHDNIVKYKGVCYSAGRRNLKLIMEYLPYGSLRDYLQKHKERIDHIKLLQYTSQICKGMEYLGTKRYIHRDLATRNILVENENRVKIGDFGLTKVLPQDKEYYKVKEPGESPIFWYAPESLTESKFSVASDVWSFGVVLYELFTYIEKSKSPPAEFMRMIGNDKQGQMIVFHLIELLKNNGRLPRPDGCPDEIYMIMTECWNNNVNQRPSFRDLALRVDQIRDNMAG

| SMILES | GI50 [1] | GI50 [2] |
| --- | --- | --- |
| C=CC(=O)Nc1ccc(Sc2nc(Nc3ccc(N4CCOCC4)cc3)ncc2C)c(C)c1 [Compound 163, N-(3-methyl-4-(5-methyl-2-(4-morpholinophenylao)pyrimidin-4-ylthio)phenyl)acrylamide] | < 1 µM | > 20 µM |
| Cc1cnc(Nc2ccc(N3CCOCC3)cc2)nc1Sc1c(C)cc(N)cc1C [Compound 165, 4-(4-ao-2,6-dimethylphenylthio)-5-methyl-N-(4-morpholinophenyl)pyrimidin-2-ae] | > 20 µM | > 20 µM |
| C=CC(=O)N(C)c1ccc(Sc2nc(Nc3ccc(N4CCOCC4)cc3)ncc2C)cc1 [Compound 173, N-methyl-N-(4-(5-methyl-2-(4-morpholinophenylao)pyrimidin-4-ylthio)phenyl)acrylamide] | < 1 µM | < 20 µM |
| Cc1cnc(Nc2ccc(O)cc2)nc1Sc1ccc(NC(=O)CCl)cc1 [Compound 193, 2-chloro-N-(4-(2-(4-hydroxyphenylao)-5-methylpyrimidin-4-ylthio)phenyl)acetamide] | < 1 µM | < 5 µM |
| Cc1cnc(Nc2cccc(O)c2)nc1Sc1ccc(NC(=O)CCl)cc1 [Compound 194, 2-chloro-N-(4-(2-(3-hydroxyphenylao)-5-methylpyrimidin-4-ylthio)phenyl)acetamide] | < 1 µM | < 5 µM |
| N#Cc1ncn(Cc2ccc(Sc3ccnc(Nc4ccc(N5CCOCC5)cc4)n3)cc2)c1C#N [Compound 201, 1-(4-(2-(4-morpholinophenylao)pyrimidin-4-ylthio)benzyl)-1H-imidazole-4,5-dicarbonitrile] | < 5 µM | < 5 µM |
| Cc1cnc(Nc2ccc(N3CCOCC3)cc2)nc1Sc1ccc(NC(=O)CSCC(=O)O)cc1 [Compound 230, 2-(2-(4-(5-methyl-2-(4-morpholinophenylao)pyrimidin-4-ylthio)phenylao)-2-oxoethylthio)acetic acid] | > 20 µM | > 20 µM |
| Cc1cnc(Nc2ccc(N3CCOCC3)cc2)nc1Sc1ccc(N2C(=O)CSCC2=O)cc1 [Compound 231, 4-(4-(5-methyl-2-(4-morpholinophenylao)pyrimidin-4-ylthio)phenyl)thiomorpholine-3,5-dione] | < 20 µM | < 20 µM |
| CC#CC(=O)Nc1cccc(Sc2ccnc(Nc3cccc(N4CCOCC4)c3)n2)c1 [Compound 232, N-(3-(2-(3-morpholinophenylao)pyrimidin-4-ylthio)phenyl)but-2-ynamide] | < 5 µM | < 20 µM |
| CC#CC(=O)Nc1ccc(Sc2ccnc(Nc3cccc(N4CCOCC4)c3)n2)cc1 [Compound 233, N-(4-(2-(3-morpholinophenylao)pyrimidin-4-ylthio)phenyl)but-2-ynamide] | < 1 µM | < 5 µM |
| C=CC(=O)Nc1ccc(Sc2nc(Nc3cccc(OC)c3)ncc2C)cc1 [Compound 235, N-(4-(2-(3-methoxyphenylao)-5-methylpyrimidin-4-ylthio)phenyl)acrylamide] | < 1 µM | < 20 µM |
| C=CC(=O)Nc1ccc(Sc2nc(Nc3cccc(N4CCOCC4)c3)ncc2C)cc1 [Compound 237, N-(4-(5-methyl-2-(3-morpholinophenylao)pyrimidin-4-ylthio)phenyl)acrylamide] | < 1 µM | < 5 µM |
| C=CC(=O)Nc1ccc(Sc2ccnc(Nc3ccc(N4CCN(C)CC4)cc3)n2)cc1 [Compound 238, N-(4-(2-(4-(4-methylpiperazin-1-yl)phenylao)pyrimidin-4-ylthio)phenyl)acrylamide] | < 1 µM | < 5 µM |
| C=CC(=O)Nc1ccc(Sc2nc(Nc3ccc(N4CCN(C)CC4)cc3)ncc2C)cc1 [Compound 239, N-(4-(5-methyl-2-(4-(4-methylpiperazin-1-yl)phenylao)pyrimidin-4-ylthio)phenyl)acrylamide] | < 1 µM | < 5 µM |
| COc1ccc(Nc2ncc(C)c(Sc3ccc(N)cc3)n2)cc1OC [Compound 240, 4-(4-aophenylthio)-N-(3,4-dimethoxyphenyl)-5-methylpyrimidin-2-ae] | < 5 µM | < 5 µM |
| C=CC(=O)Nc1ccc(Sc2nc(Nc3ccc(OC)c(OC)c3)ncc2C)cc1 [Compound 241, N-(4-(2-(3,4-dimethoxyphenylao)-5-methylpyrimidin-4-ylthio)phenyl)acrylamide] | < 1 µM | < 5 µM |
| C=CC(=O)Nc1ccc(Sc2nc(Nc3ccc(C)c(Br)c3)ncc2C)cc1 [Compound 242, N-(4-(2-(3-bromo-4-methylphenylao)-5-methylpyrimidin-4-ylthio)phenyl)acrylamide] | < 20 µM | > 20 µM |
| C=CC(=O)Nc1ccc(Sc2nc(Nc3cccc(N4CCN(C)CC4)c3)ncc2C)cc1 [Compound 243, N-(4-(5-methyl-2-(3-(4-methylpiperazin-1-yl)phenylao)pyrimidin-4-ylthio)phenyl)acrylamide] | < 1 µM | < 5 µM |
| Cc1cnc(Nc2ccc(N3CCN(C)CC3)cc2)nc1Sc1ccc(N)cc1 [Compound 244, 4-(4-aophenylthio)-5-methyl-N-(4-(4-methylpiperazin-1-yl)phenyl)pyrimidin-2-ae] | < 5 µM | < 5 µM |
| Cc1cnc(Nc2cccc(N3CCN(C)CC3)c2)nc1Sc1ccc(N)cc1 [Compound 245, 4-(4-aophenylthio)-5-methyl-N-(3-(4-methylpiperazin-1-yl)phenyl)pyrimidin-2-ae] | < 1 µM | < 1 µM |
